Here are results for one compound from US11679098B2, “Methods for treating diseases” (UNIVERSITY OF LOUISVILLE RESEARCH FOUNDATION, INC., priority 2018, dated 2023).

Series [1] has as its system NCI60 human tumor cell line panel. Briefly: NCI60 human tumor cell line screen. The format is cell-based. The source says: FIG. 1: Screens to Identify the role of Microsomal glutathione S-transferase 1 (MGST1). Results from the NCI's 60 human tumor cell lines screen. The COMPARE algorithm was used to probe microarray results from the cell lines to identify gene expression that correlated with this unusual pattern of growth inhibition.
NCI60 human tumor cell line screen of XB05 activity. To further investigate the initial observations of XB05's anti-cancer activities, XB05 was submitted to the National Cancer Institute's Developmental Therapeutics Program for testing with the NCI60 human tumor cell line panel. This panel consists of 60 well-characterized human tumor cell lines (SHOEMAKER “The NCI60 human tumour cell line anticancer drug screen” Nat Rev Cancer (2006) Vol. 6, No. 10, Vol. 813-823, which is herein incorporated by reference in its entirety).

The test system of series [2] is A549 cells (non-transfected, non-targeting gRNA). Briefly: Relative proliferation of A549 cells that express MGST1 (non-transfected, non-targeting gRNA). The series is classed as cell-based, human. The following applies: 72 h, non-transfected A549 and non-targeting gRNA. How it is done:
(§1) FIG. 4: To assess the role of MGST1 in XB05 activity, we engineered MGST1 knockout cells using CRISPR/Cas9 technology. Effect of XB05 treatment (72 h) on the relative proliferation of two independent clones of A549 cancer cells that express MGST1 (non-transfected, non-targeting gRNA) or where MGST1 was knocked out (gRNA #2, gRNA 3).
Cell proliferation & viability assays. Anti-proliferative activity of XB05 and other compounds was evaluated using a previously published 3-(4,5-dimethylthiazol-2-yl)-2,5-diphenyltetrazolium bromide (MTT) assay protocol (MORGAN “Tetrazolium (MTT) assay for cellular viability and activity” Methods Mol Biol. (1998) Vol. 79, pp. 179-83, which is herein incorporated by reference in its entirety, BATES et al. “Antiproliferative activity of G-rich oligonucleotides correlates with protein binding” J Biol Chem. (1999) Vol. 274, No. 37, pp. 26369-26377, which is herein incorporated by reference in its entirety, SALIPUR et al. “A novel small molecule that induces oxidative stress and selectively kills malignant cells” Free Radic Biol Med. (2014) Vol. 68, pp. 110-121, which is herein incorporated by reference in its entirety). Cells were seeded in quadruplicate wells in 96-well plates and allowed to adhere overnight. […] After 72 hrs of treatment with XB05 or other compounds, MTT (Sigma, St. Louis, Mo.) was added for 4 hrs prior to cell lysis. […]

Series [3] concerns MGST1 knockout A549 cells. Briefly: Relative proliferation of MGST1 knockout A549 cells (CRISPR/Cas9). The format is cell-based, human. The following applies: two different gRNA sequences, 72 h. How it is done: FIG. 3: To assess the role of MGST1 in XB05 activity, we engineered MGST1 knockout cells using CRISPR/Cas9 technology. Western blot analysis indicating the knockout of MGST1 in A549 cells.
as §1
Cell proliferation & viability assays. Anti-proliferative activity of XB05 and other compounds was evaluated using a previously published 3-(4,5-dimethylthiazol-2-yl)-2,5-diphenyltetrazolium bromide (MTT) assay protocol (MORGAN “Tetrazolium (MTT) assay for cellular viability and activity” Methods Mol Biol. (1998) Vol. 79, pp. 179-83, which is herein incorporated by reference in its entirety, BATES et al. “Antiproliferative activity of G-rich oligonucleotides correlates with protein binding” J Biol Chem. (1999) Vol. 274, No. 37, pp. 26369-26377, which is herein incorporated by reference in its entirety, SALIPUR et al. “A novel small molecule that induces oxidative stress and selectively kills malignant cells” Free Radic Biol Med. (2014) Vol. 68, pp. 110-121, which is herein incorporated by reference in its entirety). […]

In series [4] the test system is IMR-90 (non-malignant lung fibroblasts). Description: MTT antiproliferative assay in IMR-90 cells. The format is cell-based. The following applies: Homo sapiens, 72 hrs treatment, read-out: MTT Antiproliferative Activity - IC50 (μM) IMR0 (non-malignant lung fibroblasts). How it is done:
(§2) Cell culture. A549 and IMR-90 cells were purchased from the American Type Culture Collection (ATCC), while HOP-62 and HOP-92 were obtained from the cell line repository at the National Cancer Institute. Cells were grown in the appropriate medium supplemented with 10% fetal bovine serum (FBS, Life Technologies, Grand Island, N.Y.), 62.5 μg/mL penicillin and 100 μg/mL streptomycin (Life Technologies) in a humidified incubator at 37° C. with 5% CO2. The media were as follows: Dulbecco's modified Eagle's medium (DMEM, Life Technologies) for A549 cells; RPMI 1640 (Life Technologies) for HOP-62 and HOP-92 cells; Eagle's minimal essential medium (EMEM) with Eagle's balanced salt solution (EBSS), 2 mM L-glutamine, 1500 mg/L sodium bicarbonate (Lonza, Walkersville, Md.), supplemented with 1 mM sodium pyruvate (Life Technologies) and non-essential amino acids (Life Technologies) for IMR-90 cells. Cell lines were verified with a 9-marker short tandem repeat profile and inter-species contamination test (Idexx BioResearch), although A549 cells utilized in proliferation assays were missing the Y allele at the amelogenin marker.
(§3) Cell proliferation & viability assays. Anti-proliferative activity of XB05 and other compounds was evaluated using a previously published 3-(4,5-dimethylthiazol-2-yl)-2,5-diphenyltetrazolium bromide (MTT) assay protocol (MORGAN “Tetrazolium (MTT) assay for cellular viability and activity” Methods Mol Biol. (1998) Vol. 79, pp. 179-83, which is herein incorporated by reference in its entirety, BATES et al. “Antiproliferative activity of G-rich oligonucleotides correlates with protein binding” J Biol Chem. (1999) Vol. 274, No. 37, pp. 26369-26377, which is herein incorporated by reference in its entirety, SALIPUR et al. “A novel small molecule that induces oxidative stress and selectively kills malignant cells” Free Radic Biol Med. (2014) Vol. 68, pp. 110-121, which is herein incorporated by reference in its entirety). Cells were seeded in quadruplicate wells in 96-well plates and allowed to adhere overnight. […] After 72 hrs of treatment with XB05 or other compounds, MTT (Sigma, St. Louis, Mo.) was added for 4 hrs prior to cell lysis. Each assay was performed in at least triplicate.
(§4) XB05 and related compounds were assessed for anti-proliferative activity in malignant (A549) and non-malignant (IMR-90) cells (Table A2).

Series [5] is described as follows: DTNB assay for reactivity with free thiols, cysteine. The format is physicochemical. How it is done: (§5) Dithiobis-2-nitrobenzioc acid (DTNB) assay for free sulfhydryls. Similar to previously described in SALIPUR et al. “A novel small molecule that induces oxidative stress and selectively kills malignant cells” Free Radic Biol Med. (2014) Vol. 68, pp. 110-121, which is herein incorporated by reference in its entirety, reactivity with free sulfhydryls was evaluated using DTNB (Sigma). Briefly, a 4× solution of DTNB (6 mM DTNB, 50 mM sodium acetate in 100 mM Tris-HCl, pH 8.0) and solutions of 0.5 mM cysteine (Sigma) and reduced glutathione (GSH, Sigma) in 100 mM Tris-HCl, pH 8.0 were freshly prepared. The 200 mM stock solutions of XB05, other compounds, diethylmaleate (Sigma), and maleimide (Sigma) were prepared in 100% DMSO, and subsequently diluted to 2× working solutions in 100 mM Tris-HCl, pH 8.0. Thiol compounds (final concentration 0.25 mM) and thiol-reactive compounds (final concentrations 0.04-5 mM) or vehicle were added in duplicate to a 96-well plate and incubated for 30 min at 37° C. DTNB solution was then added to each well (final concentration 400 μM), and incubated at room temperature for an additional 5 min. Absorbance at 412 nm was determined by a Biotek HT Synergy plate reader (Winooski, Vt.).

In series [6] the test system is A549 (lung adenocarcinoma). Briefly: MTT antiproliferative assay in A549 cells. The format is cell-based, human. How it is done: as §2, §3, §4
Series [7] in a line: DTNB assay for reactivity with free thiols, reduced glutathione. The series is classed as physicochemical. How it is done:
as §5

Structures are written as SMILES.

In the case of `CCCCCC(O)C#CC(F)(F)Br` (stereo not drawn) [XB05], in series [1] (60 human tumor cell lines), the “activity in the NCI60 screen” value is on record as “activity against about one-third of cancer cells”. Moreover, the “fold less sensitive (other cell lines in the screen)” value in series [1] (less active cell lines versus sensitive cell lines) is reported as “up to 1000 fold”. Besides, the “cell proliferation, % of vehicle” value in series [2] (1 μM) is on record as “approximately 20%”; in series [2] (2 μM) it was about 5%. Moreover, the “effect on cell proliferation after knockout of MGST1” value in series [3] is given as “reversed”. For the same compound, the IC50 in series [4] amounted to 2.5 µM; in series [6] (Homo sapiens, 72 hrs treatment, MTT) it was 0.4 µM. Moreover, the “DTNB Reactivity with Thiols - DTNB assay with Cysteine” value in series [5] (0.25 mM cysteine, 30 min at 37° C., pH 8.0) was “ND (DTNB ND - not detected at concentrations up to 2.5 mM)”. Besides, the “reactivity with thiol of cysteine” value in series [5] (FIG. 5) is “not reactive”. Besides, the “IC30 value in A549 cells” value in series [6] came out at 1000 nM. The “DTNB Reactivity with Thiols - DTNB assay with Glutathione” value in series [7] (0.25 mM reduced glutathione, 30 min at 37° C., pH 8.0) is “ND (DTNB ND - not detected at concentrations up to 2.5 mM)”. Also, in series [7] (FIG. 6), the “reactivity with thiol of glutathione” value is “not reactive”.
